Assays:
Male Sprague Dawley rats [1] = assay: Formaldehyde test, analgesic activity, late phase; format: in vivo, rat; details: for Paw licking Score observed at 40 mg/Kg / Paw lifting Score observed at 40 mg/Kg: 40 mg/Kg ip 15 min before formaldehyde 2.5%, late phase 22.5-27.5 min, maximum score 10
Description: The analgesic activity of the formula (1) compounds and of milnacipran, chosen as reference compound, was determined using a conventional pain module in which formaldehyde is injected to cause a painful sensation in animals (Eur. J. Pharmacol. 2001, 421, 109). The rats (Male Sprague Dawley rats (ICO: OFA SD [IOPS], Iffa Credo, France) are placed in observation boxes in Plexiglas above an angled mirror to facilitate observation of their hind paws. After thirty minutes habituation, the animals are given an injection of formaldehyde diluted to 2.5% on the plantar surface of the right hind paw. The injection of formaldehyde produces behavioural responses which occur in two phases: • an early phase, 0 to 5 min after injection of formaldehyde, corresponding to stimulation of the receptors specialized in the transmission of nociceptive stimuli. • a late phase which occurs between 20 and 30 min after injection. This phase corresponds to the stimulation of receptors by inflammatory mediators and/or to hyperexcitability of the dorsal horn induced during the first phase. This later phase therefore involves central sensitization and causes pain more representative of neuropathic pain compared with the pain which occurs during the first phase. On this account, only the results obtained in this later phase are taken into consideration in the present application. To study the compounds of the invention, we selected two expressions of painful behaviour (paw licking, lifting of injected paw) and chose as observation period the period which corresponds to the late phase (i.e. 22.5-27.5 min). During this 5 min phase, the animals are observed every 30 s and the following behaviours are recorded: licking or non-licking of the injected hind paw and lifting or not of the injected hind paw. Ten observations give a maximum score of 10 for each parameter. The products of the invention are given via intra-peritoneal route 15 min before the injection of formaldehyde.

adult rat = assay: Ultrasonic vocalizations (USV) test, antistress/anxiolytic activity; format: in vivo; details: 22 kHz vocalizations
Description: Antistress/anxiolytic activity was determined on a conventional model using ultrasonic vocalizations (USVs) emitted by an adult rat when subjected to stress (Eur. J. Pharmacol. 2003, 463, 133).
The experiments were conducted in standard operative cages (250×320×250 mm) insulated from noise and light. The floor of the cages is covered with a grid in stainless steel and connected to an electric shock generator delivering a fixed intensity of 0.4 mA. The device is provided on one of its walls with a light source (2 lux). The ULTRAVOX system (Noldus, Wageningen, Pays Bas) is used to record ultrasonic vocalizations at a frequency defined by an ultrasound detector, an audio-filter box and acquisition software. For this experiment, the capture frequency was set at 22 kHz. The software allows the recording of all vocalizations of 22 kHz lasting a time of more 100 ms emitted by the animals. The test starts with a habituation session of 11 min 25 s, during which the animals are individually placed in the operative device without being subjected to conditioning (neither light nor electric shock).
During a second phase, the animals are subjected to a conditioning phase of 3 sessions given over 3 consecutive days. […]

Male Sprague Dawley rats [2] = assay: Forced swimming test, antidepressant activity; format: in vivo, rat; details: 40 mg/Kg ip, single administration 30 min before test; 5 min observation; FIG. 1
Description: The antidepressant activity of the compounds of the invention was evidenced by the forced swimming test in rats (Eur. J. Pharmacol. 1978, 47, 379). This model is widely used since it is predictive of antidepressant activity in man.
The rats (Male Sprague Dawley rats (ICO: OFA SD [IOPS], Iffa Credo, France), are placed in a cylinder (height 45 cm and diameter 20 cm) filled with water at 25° C.±0.5 up to a height of 17 cm. This height allows the rats to swim or float without their paws touching the bottom of the cylinder. 24 h before the test day, the rats are placed in the cylinder for 15 min, after which time they no longer attempt to escape and remain immobile. On the test day, the animals are put back in the cylinder and the duration of immobility of the animal is measured and monitored using audiovisual recording for 5 min. The products of the invention are administered via ip route 30 min before the test. A rat is considered to be immobile when it allows itself to float and only makes small movements to remain on the surface.

Compound | Paw licking Score observed at 40 mg/Kg (Male Sprague Dawley rats [1]) | Paw lifting Score observed at 40 mg/Kg (Male Sprague Dawley rats [1]) | Duration of USVs minimum significant dose (MSD) (adult rat) | Duration of immobility (effect in words) (Male Sprague Dawley rats [2]) | Paw lifting and paw licking in late phase (effect in words) (Male Sprague Dawley rats [1]; ip, late phase of formaldehyde test)
CCN(CC)C(=O)[C@@]1(c2ccccc2)C[C@H]1CN (racemic) [milnacipran, cis-(±)-N,N-diethyl-(1-phenyl-2-aminomethyl)-cyclopropanecarboxamide, reference compound] | 2.0 ± 0.8 | 6.3 ± 1.4 | 10 mg/kg | no effect | 
(±)-cis-N,N-diethyl (1-phenyl-2-aminomethyl)-cyclobutanecarboxamide [Compound 1a] | 1.0 ± 0.4 | 3.7 ± 1.1 | 10 mg/kg | significantly decreasing the duration of immobility | significantly reduces both paw lifting and paw licking

Reference: patent US8455550B2, “Derivatives of aminocyclobutane or aminocyclobutene, their method of preparation and their use as medical products” (Pierre Fabre Medicament, priority 2009, dated 2013)
